The source of these data is ChEMBL document CHEMBL1681727, “X-ray and molecular modelling in fragment-based design of three small quinoline scaffolds for HIV integrase inhibitors” (Bioorg Med Chem, 2011).

A word on the IC50: it is the point on the concentration scale where inhibition reaches its midpoint.

A short description of the test: Inhibition of Human immunodeficiency virus integrase.
`Cc1ccc2ccc(C(=O)O)c(O)c2n1` gave an IC50 of more than 100 µM.

Regarding `Cc1ccc2c(O)c(C(=O)O)ccc2n1`, the IC50 was determined as 47 µM. This counts as double-digit micromolar.

Take `CC(=O)NC1=CC(=O)c2ccc(C)nc2C1=O`: the IC50 turned out to be 77 µM.
